Source: article PMC7911889 (Viruses, 2021)

Target: SARS-CoV-2 3CL^pro (Severe acute respiratory syndrome coronavirus 2, UniProt P0DTD1)
Type: cell-based

GRL-0496 was tested, and the “Effect on luciferase reporter activity / 3CL^pro inhibition (in words)” value was “clearly inhibited SARS-CoV-2 3CL^pro”.
